As usually defined, the pKd is −log10 of the Kd, conventionally taken in molar units.

The values below come from patent publication US9260473B2, “Bivalent multifunctional ligands targeting Aβ oligomers as treatment for Alzheimer's disease” (Virginia Commonwealth University, priority 2010, dated 2016).

pKd: −log10 of the molar value.

The nature of data set [1]: BBB permeability in B6C3F1 mice, brain tissue analysed by HPLC. The class given is in vivo. On the procedure: FIG. 10. Compound 14 can cross the blood brain barrier (BBB) of B6C3F1 mice. Compound 14 (10 mg/kg) was given to B6C3F1 female mice (n=3) by i.v. administration through tail-vein. Then the animals were sacrificed at indicated time intervals and the brain tissues were collected and analyzed by HPLC using C18 column.
An appropriate fluorescent probe must cross the BBB and selectively bind to Aβ plaques. […] Here, we further assessed the BBB permeability of 14 using female B6C3F1 mice combined with HPLC analysis. […] The results may indicate that 14 can rapidly cross the BBB and reach the brain tissue and is metabolized in a reasonable time window (˜3 hrs) that allows clinical operation. 14 appears to violate all of the empirical rules of BBB permeability with a molecule weight >1000 Da and being more lipophilic (log P>3). However, we also realize that there are exceptions and that compounds with molecular weight more than 1000 Da can efficiently cross the BBB and reach brain tissue.

The target in data set [2] is bovine serum albumin (BSA) (Bos taurus, UniProt P02769). The data set can be described thus: Fluorescence polarization binding to BSA. As to conditions: read-out: binding affinity to BSA (Kd). On the procedure: (§1) FIG. 8A-C. BMAOI 14 binds to Aβ42 monomers, oligomers, and fibrils, but not BSA. A. The monomers, oligomers and fibrils of Aβ42 were prepared according to established protocols and confirmed by TEM; B. Compound 14 (1 μM) was incubated with different forms of Aβ42 at indicated concentrations for 3 hrs. Then, fluorescence polarization change of 14 was recorded and the binding affinity was calculated; C. Compound 14 was incubated with BSA as described in B and the binding affinity was calculated.
(§2) To determine the binding affinity of 14 to Aβ, we evaluated changes in fluorescence polarization values of this probe at different 14:Aβ ratios for monomeric, oligomeric, and fibrillary Aβ species, respectively. Aβ42 is chosen to evaluate the binding of probe as it is the major and most sticky amyloid peptide found in AD plaques.^1 The formation of different Aβ42 species was confirmed by transmission electron microscope (TEM) as shown in FIG. 8A. […] It appears that 14 binds to Aβ42 with micromolar affinity and slightly favors […] fibrils over monomers and oligomers.
(Polarisation of emitted light reports the rotation of a fluorescent probe.)

In the next data set the test system is AβOs. Description: Immunocytochemistry assay of AβOs in MC65 cells (A11 antibody). The class given is cell-based, human. As to conditions: 10 μM, 24 hrs after removal of TC.
For another data set, the target named is T1, Aβ42 oligomers (Homo sapiens, UniProt P05067).
T1 construct: The monomers, oligomers and fibrils of Aβ42 were prepared according to established protocols and confirmed by TEM
Description: Fluorescence polarization binding to Aβ42 oligomers. As to conditions: compound 1 μM, 3 hrs, read-out: apparent binding constant (Kd) for Aβ42 oligomers. On the procedure: as §1, §2

Data set [3] deals with T2, Aβ42 fibrils (Homo sapiens, UniProt P05067).
T2 construct: The monomers, oligomers and fibrils of Aβ42 were prepared according to established protocols and confirmed by TEM
Description: Fluorescence emission before and after mixing with Aβ42 fibrils. Type of data set: binding. As to conditions: compound 1 μM. The method, then:
FIG. 9. Fluorescence emission of 14 (1 μM) before and after mixing with Aβ42 fibrils.
To examine the change of fluorescence properties upon binding to Aβ42, we compared the fluorescence properties of free 14 in aqueous solution to its fluorescence properties in the presence of Aβ42 fibrils as this chemical probe will be used to detect Aβ plaques. […] A blue shift in the emission spectra of 10 nm was also observed upon association with Aβ42 fibrils.

Data set [4] concerns the target T2, Aβ42 fibrils. Description: Fluorescence polarization binding to Aβ42 fibrils. As to conditions: compound 1 μM, 3 hrs, read-out: apparent binding constant (Kd) for Aβ42 fibrils. On the procedure:
as §1, §2

For another data set, the system named is NK cells. Description: IL-2 augmented natural killer (NK) cell activity. The class given is cell-based, B6C3F1 mice. As to conditions: 10 μM. On the procedure:
IL-2 augmented natural killer (NK) cell activity. […] Recombinant IL-2 (Chiron, Emeryville, Calif.) at a volume of 50 μL was added to each well so that the final concentration of IL-2 was 5000 fU/mL. The plates were cultured overnight in the presence of 1 or 14 (10 μM), and then assayed for NK cell activity using ^51Cr-labeled YAC-1 cells as the target cells. The ^51Cr-YAC-1 cells were added to each well of a 96-well plate to obtain E:T ratio of 50:1. […] Following 4 hrs incubation, the plates were centrifuged, and 0.1 mL of the supernatant was removed from each well and the radioactivity counted. The mean percentage of cytotoxicity was determined.

The subject of the next data set is splenocytes. The data set can be described thus: Anti-CD3 antibody mediated splenocyte proliferation. The class given is cell-based, B6C3F1 mice. As to conditions: 10 μM. On the procedure:
Anti-CD3 antibody mediated splenocyte proliferation. […] The splenocytes (2×10^5/well) were cultured in the microtiter wells coated with anti-CD3 Ab (1 μg/mL; BD PharMingen) in the presence of 1 or 14 (10 μM) at 37° C. in 5% CO2. Prior to harvest on day 3, the cells were pulsed with ^3H-thymidine for 18-24 hours. The incorporation of ^3H-thymidine into the proliferating cells was used as the endpoint of the assay, and the data were expressed as CPM/2×10^5 cells.

The target in another data set is T3, Aβ42 monomers (Homo sapiens, UniProt P05067).
T3 construct: The monomers, oligomers and fibrils of Aβ42 were prepared according to established protocols and confirmed by TEM
Description: Fluorescence polarization binding to Aβ42 monomers. As to conditions: compound 1 μM, 3 hrs, read-out: apparent binding constant (Kd) for Aβ42 monomers. On the procedure: as §1, §2

In another data set the target is T4, Aβ42 (Homo sapiens, UniProt P05067).
T4 construct: Aβ42 was obtained from American Peptide, Inc. (Sunnyvale, Calif.); purchased American Peptide, Inc. (Sunnyvale, Calif.)
Description: Aβ42 oligomerization inhibition assay (Western blot). Type of data set: biochemical. As to conditions: Aβ42 5 μM, compound 20 μM, 4 hrs at 37° C. Background: In western blotting, separated proteins are transferred to a membrane and probed.

In another data set the test system is extracellular AβOs. Description: ML60 cell assay: ELISA for extracellular AβOs. As to conditions: ML60 cells, 10 μM, 24 hrs. The class given is cell-based, Chinese hamster. (In general: ELISA stands for enzyme-linked immunosorbent assay.)
Data set [5] has as its system intracellular oxidative stress. Description: DCFH-DA antioxidation assay in MC65 cells. The class given is cell-based, human. As to conditions: −TC, 24 hrs.
Description: DCFH-DA antioxidation assay. MC65 cells were seeded in 96-well plates (4×10^4 cells/well). After incubation at 37° C., 5% CO2 for 24 hrs, the medium was removed and washed with PBS. Opti-MEM and test compounds were added (+TC, −TC, and blank with only test compounds). MC65 cells were incubated at 37° C., 5% CO2 for 24 hrs. Then DCFH-DA in Opti-MEM was added to each well (final DCFH-DA concentration was 25 uM) and incubate at 37° C., 5% CO2 for 30 min. The medium was removed and replaced with fresh opti-MEM and plates were read for fluorescence intensity at 485 nm (excitation)/530 nm (emission) using FlexStation III plate reader (Molecular Devices).

T2 sequence (P05067 672-713 limits assumed): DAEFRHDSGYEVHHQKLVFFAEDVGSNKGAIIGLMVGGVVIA
bovine serum albumin (BSA), sequence (P02769 25-607): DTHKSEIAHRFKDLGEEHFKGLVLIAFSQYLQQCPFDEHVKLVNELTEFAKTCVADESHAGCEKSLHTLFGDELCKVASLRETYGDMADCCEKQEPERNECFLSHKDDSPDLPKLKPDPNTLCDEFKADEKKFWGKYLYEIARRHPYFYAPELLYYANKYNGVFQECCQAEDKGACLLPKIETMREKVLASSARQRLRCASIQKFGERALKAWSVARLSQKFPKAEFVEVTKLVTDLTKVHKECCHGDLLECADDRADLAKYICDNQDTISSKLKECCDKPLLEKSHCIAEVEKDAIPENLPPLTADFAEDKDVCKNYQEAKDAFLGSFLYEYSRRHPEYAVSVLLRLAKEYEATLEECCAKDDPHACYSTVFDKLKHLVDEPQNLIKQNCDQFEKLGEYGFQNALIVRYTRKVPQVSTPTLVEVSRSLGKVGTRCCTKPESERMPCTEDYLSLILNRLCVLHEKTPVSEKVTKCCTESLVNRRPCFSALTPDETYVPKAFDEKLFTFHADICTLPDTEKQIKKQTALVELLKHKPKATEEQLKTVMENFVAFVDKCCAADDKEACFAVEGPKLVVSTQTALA
T3 sequence (P05067 672-713 limits assumed): as the sequence (P05067 672-713 limits assumed) above
T1 sequence (P05067 672-713 limits assumed): as above
T4 sequence (P05067 672-713 limits assumed): as above
Description for extracellular AβOs: Next, another cell line, ML60, was employed to evaluate the inhibition of AβOs production.
ML60 cell assay. Sandwich enzyme-linked immunoassays (ELISAs) for extracellular AβOs in ML60 cells were performed. ML60 cells (90% confluent) in 96-well plates were treated with test compounds (10 μM) at 37° C., 5% CO2 for 24 hrs. ML60 cells were centrifuged for 5 min at 6000 g, and supernatant media was collected for AβOs measurement by ELISA. The capture antibody 21F12 (to Aβ residues 33-42) was used for capturing both monomeric and oligomeric Aβ42 species. The detecting antibody was biotinylated 21F12B, and the combination of 21F12 and biotinylated 21F12B allows the detection of only AβOs. The 21F12 mAbs were coated at 10 mg/mL into 96-well immunoassay plates (Costar) at room temperature overnight. The plates were then aspirated and blocked with 0.25% human serum albumin in PBS buffer for 1 hr at room temperature. The plates were rehydrated with wash buffer (0.05% Tween 20 in TBS) before use. The samples were added to the plates and incubated at room temperature for 1 hr. The plates were washed 3× with wash buffer between each step of the assay. […] Reaction product was quantified using plate reader by measuring the difference in absorbance at 450 nm and 650 nm.

With `COc1cc(C=CC(=O)C(Cc2cn(CCCCCCNC(=O)CCNC(=O)CCNC(=O)COC3CCC4(C)C(=CCC5C4CCC4(C)C(C(C)CCCC(C)C)CCC54)C3)nn2)C(=O)C=Cc2ccc(O)c(OC)c2)ccc1O` (stereo not drawn) [BMAOI 14], the “time window until disappearance from brain tissue” value in [1] (10 mg/kg i.v.) is around 3 h. For the same molecule, the “earliest time detected in brain tissue” value in [1] (10 mg/kg i.v. tail-vein, female B6C3F1 mice) is 10 min. Besides, the “duration of presence in brain tissue” value in data set [1] (10 mg/kg i.v., evident at 60 and 120 minutes) is “more than two hours”. Moreover, the pKd is around 3.92 in [2], 5.66 on Aβ42 oligomers, 6.08 on Aβ42 fibrils [4] and 5.69 on Aβ42 monomers. Further, in the data set with AβOs, the “formation of AβOs (A11 immunocytochemistry)” value is “significantly inhibited”. At Aβ42 fibrils [3] (Aβ42=5 μM, excitation 430 nm), the “increase of emission intensity upon binding to Aβ42 fibrils” value is recorded as 4.5 fold. In addition, the “blue shift in the emission spectra upon association with Aβ42 fibrils” value on Aβ42 fibrils [3] was 10 nm. The “cytotoxic effects in NK cells” value in the data set with NK cells is “no cytotoxic effects”. Also, the “cytotoxic effects in mouse spleen cells” value in the data set with splenocytes is “minimal cytotoxic effects”. On Aβ42, the “inhibition of oligomerization of Aβ42” value is listed as “inhibited the oligomerization of Aβ42”. The “production of extracellular AβOs (ELISA)” value with extracellular AβOs was “inhibited the production of extracellular AβOs”. In addition, the “suppression of intracellular oxidative stress (DCFH-DA fluorescence)” value in data set [5] was “suppressed the intracellular oxidative stress in a dose-depndent manner”.
